The record followed here is patent US12194050B2, “Thiadiazine derivatives” (RICHTER GEDEON NYRT., priority 2018, dated 2025).

The test concerns the target human α7 nAchR (Homo sapiens (Human), UniProt P36544). The experiment in a line: Human α7 nicotinic acetylcholine receptor [Ca2+]i assay (PAM, Ca2+ fluorometry). Conditions: Flp-In 293 cells expressing human α7 nAchR and human RIC-3; in presence of saturating agonist (mostly PNU-282987, 1 μM). Format: cell-based. The protocol:
Biological Activity Human α7 Nicotinic Acetylcholine Receptor [Ca^2+]i Assay
Cells: Flp-In 293 cells stably expressing human α7 nAchR and human RIC-3 (α7 cells, generated in house.)
Materials: 96-well plates coated with PDL (Falcon), culture medium, assay buffer, DMSO, FLIPR Calcium 5 kit (Molecular Devices), probenecid, agonist and PAM test compounds.
Brief Description of the Method (Ca^2+ Fluorometry)
α7 cells stably expressing human α7 nAchR were cultured in the medium detailed above, and were split twice a week. For the fluorometric measurements of cytosolic Ca^2+ ion concentration ([Ca^2+]i) cells were seeded in 96-well microplates at a density of 60000 cells/well and maintained overnight in a tissue culture incubator at 37° C. under an atmosphere of 95% air/5% CO2. The plating medium was identical with the culture medium. 50 μl of the growth medium was aspirated with a cell washer (BioTek Elx405UCVWS). Then 50 μl/well Calcium 5 kit diluted 2-fold in assay buffer was added manually using an 8-channel pipette. After an incubation period (20 minutes, 37° C.) 50 μl/well assay buffer containing vehicle (DMSO, 4% added) or reference α7 PAMs (4×of the final concentration) were added manually and the cells were incubated for an additional 10 minutes at 37° C. Baseline and agonist-evoked [Ca2+]i-changes were monitored with FlexStation II (Molecular Devices, Sunnyvale, Calif.), a plate reader fluorometer with integrated 8-channel fluid addition capability. Fluorescence measurements were carried out at 37° C. The dye was excited at 485 nm, emission was sampled at 525 nm at 1.4-s intervals. Baseline was recorded for 20 seconds followed by agonist stimulation. 50 μl 4× concentrated agonist solution was added to the cells using the pipettor of FlexStation II and fluorescence was monitored for an additional 40 seconds. Final DMSO concentration was 1% for all treatments. To achieve this, a series of DMSO stock solutions were prepared from all test compounds. These stocks were stored under 0° C. and were further diluted in assay buffer to obtain the desired final concentration immediately before the measurement. Agonist and PAM concentration-response studies were conducted in the presence of saturating concentrations of PAMs (mostly PNU-120596, 5 μM) and agonists (mostly PNU-282987, 1 μM), respectively. Results were expressed as ΔF/F values using SoftMax Pro software (Molecular Devices), where F was the resting fluorescence preceding agonist application and ΔF was the increase in fluorescence at a given time (ΔF=maximum fluorescence intensity values after stimulation minus average fluorescence intensity values before stimulation). In all experiments, all treatments were measured in multiple wells in parallel, and the mean ΔF/F values were used for analysis.

human α7 nAchR, sequence (P36544 23-502): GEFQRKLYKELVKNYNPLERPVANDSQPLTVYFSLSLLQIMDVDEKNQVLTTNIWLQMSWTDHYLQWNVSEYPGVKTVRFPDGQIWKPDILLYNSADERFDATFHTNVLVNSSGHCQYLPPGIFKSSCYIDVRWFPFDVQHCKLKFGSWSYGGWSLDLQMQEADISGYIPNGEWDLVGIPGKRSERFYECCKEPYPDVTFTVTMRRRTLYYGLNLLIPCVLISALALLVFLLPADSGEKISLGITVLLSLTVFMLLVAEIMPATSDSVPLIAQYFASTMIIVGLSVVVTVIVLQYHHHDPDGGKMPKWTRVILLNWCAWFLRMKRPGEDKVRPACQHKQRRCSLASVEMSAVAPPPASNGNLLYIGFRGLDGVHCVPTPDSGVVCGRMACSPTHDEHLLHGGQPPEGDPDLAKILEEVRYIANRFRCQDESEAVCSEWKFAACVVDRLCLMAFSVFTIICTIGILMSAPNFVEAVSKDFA

One may read the EC50 as the concentration that produces a half-maximal response. On to `CCN1C(C(=O)Nc2ccc(C)c(C)c2)=CC(c2ccc(OC)c(OC)c2)=NS1(=O)=O` [Example 34], for which the EC50 is 130 nM. As for `CCN1C(C(=O)Nc2ccc(Cl)c(OC)c2)=CC(c2ccc(OC)c(OC)c2)=NS1(=O)=O` [Example 35], the concentration for a half-maximal effect (EC50) amounted to 150 nM. As to `CCN1C(C(=O)Nc2ccc(OC)c(Cl)c2)=CC(c2ccc(OC)c(OC)c2)=NS1(=O)=O` [Example 36], the EC50 is 310 nM. Under `CCN1C(C(=O)Nc2ccc(OC)cc2)=CC(c2ccc(OC)c(C(F)(F)F)c2)=NS1(=O)=O` [Example 38] stands 45 nM; under `CCN1C(C(=O)Nc2cccc(C(F)(F)F)c2)=CC(c2ccc(OC)c(C(F)(F)F)c2)=NS1(=O)=O` [Example 39], 150 nM.

With `CCN1C(C(=O)Nc2cccc(C)c2)=CC(c2ccc(OC)c(C(F)(F)F)c2)=NS1(=O)=O` [Example 40], the half-maximal effective concentration (EC50) was 60 nM. Under `CCN1C(C(=O)Nc2ccc(C)cc2)=CC(c2ccc(OC)c(C(F)(F)F)c2)=NS1(=O)=O` [Example 41] stands 100 nM; under `CCN1C(C(=O)Nc2cccc(OC)c2)=CC(c2ccc(OC)c(C)c2)=NS1(=O)=O` [Example 42], 120 nM; under `CCN1C(C(=O)Nc2ccc(OC)cc2)=CC(c2ccc(OC)c(C)c2)=NS1(=O)=O` [Example 43], 110 nM. Under `CCN1C(C(=O)Nc2cccc(C(F)(F)F)c2)=CC(c2ccc(OC)c(C)c2)=NS1(=O)=O` [Example 44] stands 360 nM. Under `CCN1C(C(=O)Nc2cccc(C)c2)=CC(c2ccc(OC)c(C)c2)=NS1(=O)=O` [Example 45] stands 210 nM. Consider `CCN1C(C(=O)Nc2ccc(C)cc2)=CC(c2ccc(OC)c(C)c2)=NS1(=O)=O` [Example 46], for which the EC50 worked out at 170 nM. The value for `CCN1C(C(=O)Nc2cccc(Cl)c2)=CC(c2ccc(OC)c(C)c2)=NS1(=O)=O` [Example 47] was 500 nM; that for `CCN1C(C(=O)Nc2cccc(C(F)(F)F)c2)=CC(c2ccc(C(F)(F)F)c(OC)c2)=NS1(=O)=O` [Example 48] was 330 nM. Under `CCN1C(C(=O)Nc2cccc(C(F)(F)F)c2)=CC(c2ccc(C)c(OC)c2)=NS1(=O)=O` [Example 49] stands 490 nM; under `CCN1C(C(=O)Nc2cccc(C(F)(F)F)c2)=CC([C@H]2CC[C@H](C(F)(F)F)CC2)=NS1(=O)=O` [Example 50], 1100 nM.

For `CCN1C(C(=O)Nc2cccc(C(F)(F)F)c2)=CC(C2CCC(F)(F)CC2)=NS1(=O)=O` [Example 51], the 50% effective concentration (EC50) came to 810 nM.

As for `CCN1C(C(=O)Nc2cccc(C(F)(F)F)c2)=CC([C@H]2CC3C[C@@H]3C2)=NS1(=O)=O` (stereo partly drawn) [Example 52], the concentration for a half-maximal effect (EC50) was found to be 1600 nM. Under `CN1C(C(=O)Nc2cccc(C(F)(F)F)n2)=CC([C@H]2CC[C@H](C(F)(F)F)CC2)=NS1(=O)=O` [Example 54] stands 480 nM; under `CN1C(C(=O)Nc2cccc(C(F)(F)F)n2)=CC(C2CCC(F)(F)CC2)=NS1(=O)=O` [Example 55], 470 nM; under `CN1C(C(=O)Nc2cccc(F)n2)=CC(C2CCC(F)(F)CC2)=NS1(=O)=O` [Example 56], 2500 nM. The value for `CCN1C(C(=O)Nc2cccc(C(F)(F)F)c2F)=CC([C@H]2CC[C@H](C(F)(F)F)CC2)=NS1(=O)=O` [Example 57] was 2000 nM; that for `CCN1C(C(=O)Nc2cncc(C(F)(F)F)c2)=CC([C@H]2CC[C@H](C(F)(F)F)CC2)=NS1(=O)=O` [Example 58] was 1200 nM. The value for `CCN1C(C(=O)Nc2ccc(C(F)(F)F)cn2)=CC([C@H]2CC[C@H](C(F)(F)F)CC2)=NS1(=O)=O` [Example 59] was 1300 nM. Consider `CCN1C(C(=O)Nc2cncc(C(F)(F)F)n2)=CC([C@H]2CC[C@H](C(F)(F)F)CC2)=NS1(=O)=O` [Example 60], for which the EC50 came out at 300 nM. As for `CCN1C(C(=O)Nc2cccc(F)n2)=CC([C@H]2CC[C@H](C(F)(F)F)CC2)=NS1(=O)=O` [Example 61], the half-maximal effective concentration (EC50) was 100 nM. For the compound `CCN1C(C(=O)Nc2cc(Cl)ccn2)=CC([C@H]2CC[C@H](C(F)(F)F)CC2)=NS1(=O)=O` [Example 62], the EC50 was 2800 nM.

On to `CCN1C(C(=O)Nc2cncc(F)n2)=CC([C@H]2CC[C@H](C(F)(F)F)CC2)=NS1(=O)=O` [Example 63], for which the EC50 is 190 nM. Under `CCN1C(C(=O)Nc2ccnc(C(F)(F)F)n2)=CC([C@H]2CC[C@H](C(F)(F)F)CC2)=NS1(=O)=O` [Example 64] stands 330 nM.

Regarding `CCN1C(C(=O)Nc2cccc(C(F)(F)F)n2)=CC([C@H]2CC[C@H](OC)CC2)=NS1(=O)=O` [Example 65], the EC50 is 1100 nM. As to `CCN1C(C(=O)Nc2cccc(C(F)(F)F)n2)=CC(C2CCCCCC2)=NS1(=O)=O` [Example 66], the EC50 came out at 430 nM. Under `CCN1C(C(=O)Nc2cccc(C(F)(F)F)n2)=CC([C@H]2CC[C@H](C)CC2)=NS1(=O)=O` [Example 67] stands 220 nM; under `CCN1C(C(=O)Nc2cccc(C(F)(F)F)n2)=CC(C2CCC(F)(F)CC2)=NS1(=O)=O` [Example 68], 140 nM.

Consider `CCN1C(C(=O)Nc2cncc(C(F)(F)F)n2)=CC(C2CCC(F)(F)CC2)=NS1(=O)=O` [Example 69], for which the EC50 was 1100 nM. Under `CCN1C(C(=O)Nc2cccc(F)n2)=CC(C2CCC(F)(F)CC2)=NS1(=O)=O` [Example 70] stands 620 nM; under `CCN1C(C(=O)Nc2cccc(C(F)(F)F)n2)=CC([C@H]2CC3C[C@@H]3C2)=NS1(=O)=O` (stereo partly drawn) [Example 71], 140 nM; under `CCN1C(C(=O)Nc2cccc(F)n2)=CC([C@H]2CC3C[C@@H]3C2)=NS1(=O)=O` (stereo partly drawn) [Example 72], 430 nM. Under `CCN1C(C(=O)Nc2cccc(C(F)(F)F)n2)=CC(C2CCCCC2)=NS1(=O)=O` [Example 73] stands 390 nM; under `CCN1C(C(=O)Nc2cccc(F)n2)=CC(C2CCCCC2)=NS1(=O)=O` [Example 74], 1100 nM; under `CCN1C(C(=O)Nc2cccc(C(F)(F)F)n2)=CC(C2CC=CC2)=NS1(=O)=O` [Example 75], 960 nM. The value for `CCN1C(C(=O)Nc2cccc(C#N)n2)=CC([C@H]2CC[C@H](C(F)(F)F)CC2)=NS1(=O)=O` [Example 76] was 85 nM; that for `CCN1C(C(=O)Nc2ccc(F)c(C)n2)=CC([C@H]2CC[C@H](C(F)(F)F)CC2)=NS1(=O)=O` [Example 77] was 1500 nM. `CCN1C(C(=O)Nc2cccc(C(C)(F)F)n2)=CC([C@H]2CC[C@H](C(F)(F)F)CC2)=NS1(=O)=O` [Example 78]: the EC50 was 790 nM. The value for `CCN1C(C(=O)Nc2ccnc(F)n2)=CC([C@H]2CC[C@H](C(F)(F)F)CC2)=NS1(=O)=O` [Example 79] was 320 nM; that for `CCN1C(C(=O)Nc2cccc(C(F)F)n2)=CC([C@H]2CC[C@H](C(F)(F)F)CC2)=NS1(=O)=O` [Example 80] was 350 nM. Under `CC[C@@H](C)N1C(C(=O)Nc2cccc(C(F)(F)F)n2)=CC(c2ccc(OC)c(OC)c2)=NS1(=O)=O` [Example 81] stands 120 nM; under `CC[C@H](C)N1C(C(=O)Nc2cccc(C(F)(F)F)n2)=CC(c2ccc(OC)c(OC)c2)=NS1(=O)=O` [Example 82], 120 nM.

As for `COc1ccc(C2=NS(=O)(=O)N([C@H]3CCOC3)C(C(=O)Nc3cccc(C(F)(F)F)n3)=C2)cc1OC` [Example 83], the 50% effective concentration (EC50) is 310 nM.
